Results from US20070243132A1, “Transdermal delivery of pharmaceutical agents” (priority 2005, published 2007).
Counter-ions that a name gives are not always drawn.

How the values were obtained:
[1] = test system: Carrageenan-induced inflammation in the rear right footpad; assay: Carrageenan-induced footpad inflammation, foot thickness; assay type: in vivo, mice; details: for reduction of inflammation (foot thickness) vs untreated animals: microemulsion 10 mg/ml, topical on shaved belly, FIG. 8; for reduction of inflammation (foot thickness): microemulsion 10 mg/ml VB12 analog, 20 microL on shaved belly, 14 days
[2] = test system: B16 melanoma line; assay: Topical treatment of B16 melanoma in mice; details: microemulsion 10 mg/ml, 20 microlitre, 2 times per day, after 4 days
[3] = Distribution of 125I-labeled proteins after transdermal application in a microemulsion; details: conscious Balb/C mice; for counts in the organs of the intestine: presumed due to grooming
[4] = microemulsions compared to a hydrogel; cited from earlier work
[5] = Weight loss microemulsion in overweight Swiss mice; assay type: in vivo; details: topical microemulsion 1 mg/ml daily
Experimental: A microemulsion for topical weight loss was prepared according to the methods described in Examples 1 and 7, and included insulin, or insulin-like growth factor 1 (IGF1) or GHRP-6 at a final concentration of 1 mg/ml. A standardised volume of microemulsion was applied daily (TD) to an area of shaved skin on the belly of conscious Swiss strain mice. A standardised volume of each of insulin, or insulin-like growth factor 1 (IGF1) or GHRP-6 at a final concentration of 1 mg/ml in saline was injected sub cutaneously (SC) into the belly region of Swiss strain mice. Animal weights were measured 3 times per week. Following 2 weeks of treatment the mice were euthanased and their tissues removed and weighed. The weight of the animals with time is plotted in FIG. 11. It can be seen that there was a decrease in body weight of animals treated with the topical insulin of up to 15% within 2 weeks (FIG. 11).

H-Met-Gln-Met-Asn-Ser-OH [MLIF-C]
reduction of inflammation (foot thickness) vs untreated animals ([1]; C57/BI6 mice): active in reducing inflammation

cyanocobalamin [reference compound]
reduction of inflammation (foot thickness) ([1]; C57/BI6 mice, FIG. 7): active in reducing inflammation

H-Met-Gln-Glu-Asn-Ser-OH [MLIF-A]
reduction of inflammation (foot thickness) vs untreated animals ([1]; C57/BI6 mice): active in reducing inflammation

adalimumab
level of inflammation in the rear right foot-pad vs untreated animals ([1]; microemulsion, TNFRII-Fc 5 mg/ml or adalimumab 4 mg/ml, topical, FIG. 9): significantly lower levels of inflammation

N.N.O=C([O-])C1(C(=O)[O-])CCC1.[Pt+2] [Carboplatin]
body weight of the animals [2]: no reduction in body weight
growth rate of the tumour [2]: reduction in growth rate of the tumour

H-Met-Gln-Ile-Asn-Ser-OH [MLIF-B]
reduction of inflammation (foot thickness) vs untreated animals ([1]; C57/BI6 mice): active in reducing inflammation

O=c1[nH]cc(F)c(=O)[nH]1 [5-fluorouracil]
growth rate of the tumour [2]: reduction in growth rate of the tumour

C/C1=C2/[N-][C@H]([C@H](CC(N)=O)[C@@]2(C)CCC(=O)NC[C@@H](C)OP(=O)([O-])O[C@H]2[C@@H](O)[C@@H](n3cnc4cc(C)c(C)cc43)O[C@@H]2CO)[C@]2(C)N=C(/C(C)=C3N=C(/C=C4N=C1[C@@H](CCC(N)=O)C\4(C)C)[C@@H](CCC(N)=O)[C@]\3(C)CC(N)=O)[C@@H](CCC(N)=O)[C@]2(C)CC(N)=O.[Co+3].[OH-] [hydroxycobalamin, reference compound]
reduction of inflammation (foot thickness) ([1]; C57/BI6 mice, FIG. 7): active in reducing inflammation

EGF: 125I-labeled Epidermal Growth Factor in a microemulsion
appearance of 125I in skin, muscle and shaved area ([3]; after 3 hours, FIG. 3): rapid appearance of ^125I in skin, muscle and the shaved area of the skin
counts in the organs of the intestine ([3]; after 3 hours): appearance of counts in the stomach, SI-1, SI-2, caecum and faeces

C/C1=C2/[N-][C@H]([C@H](CC(N)=O)[C@@]2(C)CCC(=O)NC[C@H](C)OP(=O)([O-])O[C@H]2[C@@H](O)[C@@H](n3cnc4cc(C)c(C)cc43)O[C@@H]2CO)[C@]2(C)N=C(/C(C)=C3N=C(/C=C4N=C1[C@@H](CCC(N)=O)C\4(C)C)[C@@H](CCC(N)=O)[C@]\3(C)CC(N)=O)[C@@H](CCC(N)=O)[C@]2(C)CC(N)=O.[Co+2] [cobalamin]
reduction of inflammation (foot thickness) ([1]; C57/BI6 mice, FIG. 7): active in reducing inflammation

CCCNC(C)C(=O)Nc1ccccc1C (stereo not shown) [prilocaine hydrochloride]
increase of transdermal flux [4]: ~10 times

C/C1=C2/[N-][C@H]([C@H](CC(N)=O)[C@@]2(C)CCC(=O)NC[C@@H](C)OP(=O)([O-])O[C@H]2[C@@H](O)[C@@H](n3cnc4cc(C)c(C)cc43)O[C@@H]2CO)[C@]2(C)N=C(/C(C)=C3N=C(/C=C4N=C1[C@@H](CCC(N)=O)C\4(C)C)[C@@H](CCC(N)=O)[C@]\3(C)CC(N)=O)[C@@H](CCC(N)=O)[C@]2(C)CC(N)=O.[CH2-][C@H]1O[C@@H](n2cnc3c(N)ncnc32)[C@H](O)[C@@H]1O.[Co] [adenosyl-cobalamin]
comparison of reduction in inflammation among the compositions ([1]; C57/BI6 mice, VB12 analog microemulsions, FIG. 7): greatest reduction in inflammation
reduction of inflammation (foot thickness) ([1]; C57/BI6 mice, FIG. 7): active in reducing inflammation
reduction of inflammation (foot thickness) vs untreated animals ([1]; C57/BI6 mice): active in reducing inflammation
level of inflammation in the rear right foot-pad vs untreated animals ([1]; C57/BI6 mice, microemulsions of Example 13, topical on shaved belly, FIG. 6): significantly lower level of inflammation

insulin: insulin in a microemulsion (125I-labeled in Example 5; 1 mg/ml in Example 20)
appearance of 125I in skin, muscle and shaved area ([3]; overnight, FIG. 4): rapid appearance of ^125I in skin, muscle and the shaved area of the skin
counts in the organs of the intestine ([3]; overnight): appearance of counts in the stomach, SI-1, SI-2, caecum and faeces
change of organ weights compared with other groups ([5]; 2 weeks, FIG. 10): greatest change
muscle mass ([5]; 2 weeks, FIG. 10): increased
weight of skin ([5]; 2 weeks, FIG. 10): significantly reduced
decrease in body weight ([5]; within 2 weeks, FIG. 11): up to 15%

N.N.[Cl][Pt][Cl] [Cis-Platinum]
body weight of the animals [2]: no reduction in body weight
growth rate of the tumour [2]: reduction in growth rate of the tumour
